The numbers were not newly measured in patent publication US10730918B2, “Trap 63” (STRAUMANN HOLDING AG, priority 2013, dated 2020), which cites them from elsewhere.

This series relates to cementoblasts. The conditions noted are these: Boabaid et al 2004.

Take “LRAP: leucine-rich amelogenin polypeptide; SEQ ID NO: 4 identical to sequence in Boabaid et al 2004 (MPLPPHPGHPGYINFSYEVLTPLKWYQNMIRHPSLLPDLPLEAWPATDKTKREEVD; sus scrofa domesticus)”: the “effect on cell proliferation” value is recorded as “not to have any effect” and the “number of cementoblasts in cell culture” value is “decreased”.

B1: full length amelogenin: full length amelogenin, major constituent of the enamel matrix (protein, UniProt Q99217 1-191, looked up)
chain: MGTWILFACLLGAAFAMPLPPHPGHPGYINFSYEVLTPLKWYQSIRPPYPSYGYEPMGGWLHHQIIPVLSQQHPPTHTLQPHHHIPVVPAQQPVIPQQPMMPVPGQHSMTPIQHHQPNLPPPAQQPYQPQPVQPQPHQPMQPQPPVHPMQPLPPQPPLPPMFPMQPLPPMLPDLTLEAWPSTDKTKREEVD
modifications: full-length
notes: full length amelogenin, major constituent of the enamel matrix
In the case of B1, the “effect on cell proliferation” value is “no reported effect”.
